Measured values from the supplement of paper PMC10307832.

Tests used:
Assay in all cases: relative viability (nuclei count vs DMSO), 5 days (fraction); higher = more cells survive
[1] = compound: CC1=NN=C(O1)C2=NN=C(C=C2)N3CCC(CC3)OC4=C(C=CC(=C4)F)Cl + C[C@@H](Oc1cc(-c2cnn(C3CCNCC3)c2)cnc1N)c1c(Cl)ccc(F)c1Cl [Crizotinib] (partner 1 µM)
Summary of the method: (§1)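 Medians of duplicate plates are given as relative viability. That measure is the nuclei count in treated wells divided by the count in vehicle wells. Counts were taken on 4× images of lung cancer cell lines in 1536-well plates, 5 days after pin-tool dosing the day after seeding with one drug alone or a fixed anchor-drug dose plus five library-drug doses (not always all listed) in √10 steps.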

[2] = compound: CC(C)C[C@@H](C(=O)N[C@H](C(=O)OC1CCCC1)c1ccccc1)[C@H](O)C(=O)NO [Tosedostat] + CC(C)C[C@H](NC(=O)[C@H](Cc1ccccc1)NC(=O)c1cnccn1)B(O)O [Bortezomib] (partner 0.002 µM)
Summary of the method: as §1

[3] = compound: CC(C)C[C@@H](C(=O)N[C@H](C(=O)OC1CCCC1)c1ccccc1)[C@H](O)C(=O)NO [Tosedostat] + O=C(c1cc(Cc2n[nH]c(=O)c3ccccc23)ccc1F)N1CCN(C(=O)C2CC2)CC1 [Olaparib] (partner 8 µM)
Summary of the method: as §1

[4] = compound: CC(C)C[C@@H](C(=O)N[C@H](C(=O)OC1CCCC1)c1ccccc1)[C@H](O)C(=O)NO [Tosedostat] + CCNC(=O)c1noc(-c2cc(C(C)C)c(O)cc2O)c1-c1ccc(CN2CCOCC2)cc1 [Luminespib] (partner 0.01 µM)
Summary of the method: as §1

For UMC-11, the relative viability ([1]; first compound 0.253 µM) was 0.468, the relative viability ([1]; first compound 0.8 µM) was 0.474 and the relative viability ([1]; first compound 2.53 µM) was 0.476. It also gave a relative viability ([1]; first compound 8 µM) of 0.487, a relative viability ([2]; first compound 0.02 µM) of 0.689 and a relative viability ([2]; first compound 0.06325 µM) of 0.523. It also gave a relative viability ([2]; first compound 0.2 µM) of 0.752, a relative viability ([2]; first compound 0.6325 µM) of 0.663 and a relative viability ([2]; first compound 2 µM) of 0.81. The relative viability ([3]; first compound 0.02 µM) was 0.374, the relative viability ([3]; first compound 0.06325 µM) was 0.336 and the relative viability ([3]; first compound 0.2 µM) was 0.287. For the same cell line, the relative viability ([3]; first compound 0.6325 µM) was 0.273, the relative viability ([3]; first compound 2 µM) was 0.327 and the relative viability ([4]; first compound 0.02 µM) was 1.01. For the same cell line, the relative viability ([4]; first compound 0.06325 µM) was 0.999, the relative viability ([4]; first compound 0.2 µM) was 1.03 and the relative viability ([4]; first compound 0.6325 µM) was 0.977. The relative viability ([4]; first compound 2 µM) was 1.12.
